This note sets out measurements from US20200291018A1, “TAM KINASE INHIBITORS” (SYROS PHARMACEUTICALS, INC., priority 2017, published 2020).

A word on the IC50: it is the concentration that gives 50% inhibition.

For one assay, the target named is T1, FLT3 (Homo sapiens, UniProt P36888).
T1 sequence (P36888 27-993): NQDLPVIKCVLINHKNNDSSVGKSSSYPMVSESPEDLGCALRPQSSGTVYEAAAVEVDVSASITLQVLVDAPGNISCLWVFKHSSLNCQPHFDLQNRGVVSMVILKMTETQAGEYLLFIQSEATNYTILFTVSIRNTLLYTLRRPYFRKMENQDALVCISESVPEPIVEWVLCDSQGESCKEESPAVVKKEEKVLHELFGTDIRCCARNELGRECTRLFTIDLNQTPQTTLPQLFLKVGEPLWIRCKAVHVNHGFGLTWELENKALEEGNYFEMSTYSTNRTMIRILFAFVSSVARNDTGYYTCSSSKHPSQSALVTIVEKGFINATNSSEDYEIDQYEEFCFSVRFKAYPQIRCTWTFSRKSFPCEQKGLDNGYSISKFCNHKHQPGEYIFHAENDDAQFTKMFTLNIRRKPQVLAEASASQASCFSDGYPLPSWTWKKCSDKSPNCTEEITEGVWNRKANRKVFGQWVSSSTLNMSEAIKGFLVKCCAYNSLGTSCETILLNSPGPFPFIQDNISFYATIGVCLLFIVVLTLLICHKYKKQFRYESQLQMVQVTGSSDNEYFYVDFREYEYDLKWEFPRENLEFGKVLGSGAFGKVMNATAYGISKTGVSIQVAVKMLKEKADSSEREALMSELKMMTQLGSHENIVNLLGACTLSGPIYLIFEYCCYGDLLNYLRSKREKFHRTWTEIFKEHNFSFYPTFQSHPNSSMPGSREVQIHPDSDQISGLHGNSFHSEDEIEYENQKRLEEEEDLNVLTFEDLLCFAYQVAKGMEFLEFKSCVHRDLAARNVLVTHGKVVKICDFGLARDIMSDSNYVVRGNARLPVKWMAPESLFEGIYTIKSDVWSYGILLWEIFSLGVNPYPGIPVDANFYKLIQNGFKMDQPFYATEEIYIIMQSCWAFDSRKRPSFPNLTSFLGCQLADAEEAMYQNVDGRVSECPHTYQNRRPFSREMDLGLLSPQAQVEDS
As to the kind of experiment: TR-FRET kinase activity assay, FLT3. The following applies: ATP at Km, 60 minutes. The format is biochemical. The method, then: (§1) IC50 values for compound inhibition of AXL, FLT3, MERTK and TYRO3 activity were determined using a TR-FRET activity assay. A peptide substrate with a fluorescent label is phosphorylated on a tyrosine by each enzyme, where the now phosphorylated product is bound by a Europium-labeled antibody specific to that phosphorylation site. The proximity between the antibody and the substrate gives a signal known as TR-FRET. As the enzyme is inhibited by compound, less phosphorylated peptide product is made, causing a decrease in overall signal.
(§2) Activity assays were performed in a 384-well, small volume, black microplates in an active enzyme volume of 10 uL and final developed volume of 20 uL. Final assay conditions are 50 mM HEPES pH 7.5, 10 mM MgCl2, 1 mM EGTA, 0.01% Brij 35 and 1 mM DTT, all at RT. Enzyme, substrate-labeled peptide and compound are mixed, and then the reaction is initiated with the addition of ATP at Km concentration for each enzyme. The reaction is allowed to run 60 minutes and then quenched with a 12.5 mM EDTA (ethylenediamine tetraacetic acid) solution. The plate is then developed with the addition of Europium-labeled antibody for a final volume of 20 uL and is then incubated for 30 minutes in darkness. Plates are read in a PHERASTAR® plate reader. Data are analyzed in GraphPad PRISM.

Another assay has as its target T2, TYRO3 (Homo sapiens, UniProt Q06418).
T2 sequence (Q06418 41-890): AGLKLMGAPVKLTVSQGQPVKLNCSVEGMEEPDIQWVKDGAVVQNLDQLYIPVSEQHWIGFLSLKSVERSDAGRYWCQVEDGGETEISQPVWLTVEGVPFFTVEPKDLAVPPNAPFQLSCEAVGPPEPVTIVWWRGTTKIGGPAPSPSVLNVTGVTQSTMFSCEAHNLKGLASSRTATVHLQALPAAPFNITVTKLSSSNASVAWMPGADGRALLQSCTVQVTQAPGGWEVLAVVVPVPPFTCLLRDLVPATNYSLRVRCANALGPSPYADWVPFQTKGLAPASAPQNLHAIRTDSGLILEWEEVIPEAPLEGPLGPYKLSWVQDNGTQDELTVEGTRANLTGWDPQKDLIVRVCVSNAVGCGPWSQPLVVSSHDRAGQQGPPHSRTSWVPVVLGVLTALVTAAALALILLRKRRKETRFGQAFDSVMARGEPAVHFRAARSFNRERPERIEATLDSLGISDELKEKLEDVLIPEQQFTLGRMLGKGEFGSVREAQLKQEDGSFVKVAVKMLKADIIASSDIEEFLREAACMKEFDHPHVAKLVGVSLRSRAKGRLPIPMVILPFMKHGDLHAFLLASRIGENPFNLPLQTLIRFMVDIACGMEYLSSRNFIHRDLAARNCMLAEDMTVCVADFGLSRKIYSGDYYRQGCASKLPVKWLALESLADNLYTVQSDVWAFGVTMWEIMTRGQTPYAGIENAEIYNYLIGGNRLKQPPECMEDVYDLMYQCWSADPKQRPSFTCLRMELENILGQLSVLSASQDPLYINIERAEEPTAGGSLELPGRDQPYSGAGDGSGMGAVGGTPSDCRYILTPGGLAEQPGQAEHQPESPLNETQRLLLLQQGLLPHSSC
As to the kind of experiment: TR-FRET kinase activity assay, TYRO3. The format is biochemical. Particulars: ATP at Km, 60 minutes. The protocol:
as §1, §2
(In TR-FRET formats the signal depends on donor and acceptor labels being close together.)

The structures appear in SMILES notation. Where a name gives a salt, the structure may show the parent alone.

As to `CCCCNc1cc2c(cn1)c(OC1CCNCC1)ncc2[C@H]1CC[C@H](O)CC1` [Compound 107], the half-inhibitory concentration (IC50) against FLT3 and on TYRO3 was not above 100 nM throughout.

`CCCCC[C@H](C)Nc1ncc2c(=O)n(C3CCOCC3)cc([C@H]3CC[C@H](O)CC3)c2n1` [Compound 108]: the figures for the IC50 against FLT3 and at TYRO3 were 1000 to 10000 nM and not above 100 nM, respectively.

Regarding `CCCCNc1cc2c(cn1)c(=O)n(C1CCNCC1)cc2[C@H]1CC[C@H](O)CC1` [Compound 109, 6-(butylamino)-4-((1r,4r)-4-hydroxycyclohexyl)-2-(piperidin-4-yl)-2,7-naphthyridin-1(2H)-one hydrochloride], the IC50 on FLT3 was 100 to 1000 nM; on TYRO3, not above 100 nM.

Regarding `CC[C@@H](C)Nc1ncc2c(OC3CCN(C)CC3)ncc([C@H]3CC[C@H](O)CC3)c2n1` [Compound 195], the IC50 on FLT3 is 1000 to 10000 nM; on TYRO3, more than 10000 nM.

`CCC[C@@H](C)Nc1ncc2c(OC3CCNCC3)ncc([C@H]3CC[C@H](O)CC3)c2n1` [Compound 196]: the figures for the IC50 at FLT3 and at TYRO3 were 1000 to 10000 nM and not above 100 nM, respectively.

With `Cc1cccc(Nc2ncc3c(OC4CCNCC4)ncc([C@H]4CC[C@H](O)CC4)c3n2)c1` [Compound 197], the IC50 is 100 to 1000 nM at FLT3 and not above 100 nM on TYRO3.

For the compound `Cc1cc(Cl)ccc1Nc1ncc2c(OC3CCNCC3)ncc([C@H]3CC[C@H](O)CC3)c2n1` [Compound 198], the IC50 was 100 to 1000 nM against FLT3 and not above 100 nM at TYRO3.

Consider `CCCC(C)Nc1ncc2c(=O)n([C@H]3CCN(C)C[C@@H]3F)cc([C@H]3CC[C@H](O)CC3)c2n1` (some centres unmarked) [Compound 199], for which the IC50 at FLT3 is 1000 to 10000 nM; against TYRO3, not above 100 nM.

With `CCCC(C)Nc1ncc2c(=O)n([C@@H]3CCCN(C)C3)cc([C@H]3CC[C@H](O)CC3)c2n1` (some centres unmarked) [Compound 200], the half-inhibitory concentration (IC50) is 1000 to 10000 nM on FLT3 and not above 100 nM against TYRO3.

Consider `CCCC(C)Nc1ncc2c(=O)n(C3CCN(C4COC4)CC3)cc([C@H]3CC[C@H](O)CC3)c2n1` (some centres unmarked) [Compound 201], for which the IC50 against FLT3 was 1000 to 10000 nM; against TYRO3 it was not above 100 nM.

`CC(Nc1ncc2c(OC3CCNCC3)ncc([C@H]3CC[C@H](O)CC3)c2n1)c1ccncc1` (some centres unmarked) [Compound 202]: the IC50 on FLT3 is 1000 to 10000 nM; at TYRO3 it was not above 100 nM.

On to `CCCC(C)Nc1ncc2c(OC3CCNCC3)ncc([C@H]3CC[C@H](O)CC3)c2n1` (some centres unmarked) [Compound 203], for which the IC50 at FLT3 and against TYRO3 was not above 100 nM in each case.

In the case of `CCC[C@@H](C)Nc1ncc2c(OC3CCNCC3)ncc([C@H]3CC[C@@H](O)CC3)c2n1` [Compound 204], the IC50 against FLT3 and against TYRO3 was 100 to 1000 nM each time.

As to `O[C@H]1CC[C@H](c2cnc(OC3CCNCC3)c3cnc(Nc4cccc(Cl)c4)nc32)CC1` [Compound 205], the IC50 against FLT3 and at TYRO3 was not above 100 nM each time.

On to `O[C@H]1CC[C@H](c2cnc(OC3CCNCC3)c3cnc(Nc4ccc(Cl)cc4)nc32)CC1` [Compound 206], for which the IC50 on FLT3 and on TYRO3 was not above 100 nM in each case.

As to `CCc1cccc(Nc2ncc3c(OC4CCNCC4)ncc([C@H]4CC[C@H](O)CC4)c3n2)c1` [Compound 207], the IC50 at FLT3 and at TYRO3 was 100 to 1000 nM in each case.

In the case of `CCC[C@@H](C)Nc1ncc2c(OC3CCN(C)CC3)ncc([C@H]3CC[C@H](O)CC3)c2n1` [Compound 208], the IC50 against FLT3 and on TYRO3 was 100 to 1000 nM in each case.

In the case of `Cc1ccc(Cl)cc1Nc1ncc2c(OC3CCNCC3)ncc([C@H]3CC[C@H](O)CC3)c2n1` [Compound 209], the IC50 is 100 to 1000 nM against FLT3 and not above 100 nM on TYRO3.

With `O[C@H]1CC[C@H](c2cnc(OC3CCNCC3)c3cnc(Nc4ccccc4)nc32)CC1` [Compound 210], the concentration for half-maximal inhibition (IC50) against FLT3 and against TYRO3 was not above 100 nM each time.

On to `O[C@H]1CC[C@H](c2cnc(OC3CCNCC3)c3cnc(NC4CCOCC4)nc32)CC1` [Compound 211], for which the IC50 against FLT3 and at TYRO3 was 100 to 1000 nM each time.

Turning to `CC(C)CNc1ncc2c(OC3CCNCC3)ncc([C@H]3CC[C@H](O)CC3)c2n1` [Compound 212], the results for the IC50 against FLT3 and at TYRO3 were 100 to 1000 nM and not above 100 nM, respectively.

For `O[C@H]1CC[C@H](c2cnc(OC3CCNCC3)c3cnc(N[C@@H]4CCOC4)nc32)CC1` [Compound 213], the figures for the IC50 at FLT3 and at TYRO3 were 1000 to 10000 nM and 100 to 1000 nM, respectively.

Take `CCCC(C)Nc1ncc2c(O[C@@H]3CCCN(C)C3)ncc([C@H]3CC[C@H](O)CC3)c2n1` (some centres unmarked) [Compound 214]: the half-inhibitory concentration (IC50) against FLT3 was 1000 to 10000 nM; against TYRO3 it was not above 100 nM.

Turning to `CCOc1ncc(C2CCN(C)CC2)c2nc(N[C@@H](C)CC)ncc12` [Compound 215], the IC50 on FLT3 is 1000 to 10000 nM; at TYRO3, not above 100 nM.

`O[C@H]1CC[C@H](c2cnc(OC3CCNCC3)c3cnc(N[C@H]4CCCOC4)nc32)CC1` [Compound 216]: the IC50 against FLT3 lay within 1000 to 10000 nM; against TYRO3, 100 to 1000 nM.

Regarding `CC[C@H](C)Nc1ncc2c(NC3CCOCC3)ncc([C@H]3CC[C@H](O)CC3)c2n1` [Compound 217], the figures for the IC50 against FLT3 and against TYRO3 were 1000 to 10000 nM and not above 100 nM, respectively.

Take `C[C@@H](Nc1ncc2c(OC3CCNCC3)ncc([C@H]3CC[C@H](O)CC3)c2n1)c1ccccc1` [Compound 218]: the IC50 lay within 1000 to 10000 nM against FLT3 and 100 to 1000 nM against TYRO3.

For `CC[C@H](C)Nc1ncc2c(NC3CCN(C)CC3)ncc([C@H]3CC[C@H](O)CC3)c2n1` [Compound 220], the IC50 against FLT3 and on TYRO3 was 100 to 1000 nM throughout.

As for `CC[C@H](C)Nc1ncc2c(OC3CCN(C)CC3)ncc([C@H]3CC[C@H](O)CC3)c2n1` [Compound 221], the figures for the IC50 against FLT3 and against TYRO3 were 1000 to 10000 nM and 100 to 1000 nM, respectively.

For `CC[C@H](C)Nc1ncc2c(N3CC[C@@H](N(C)C)C3)ncc([C@H]3CC[C@H](O)CC3)c2n1` [Compound 222], the IC50 was 1000 to 10000 nM against FLT3 and not above 100 nM at TYRO3.

With `CC[C@H](C)Nc1ncc2c(OC3C[C@H]4CC[C@@H](C3)O4)ncc([C@H]3CC[C@H](O)CC3)c2n1` (some centres unmarked) [Compound 223], the half-inhibitory concentration (IC50) on FLT3 and against TYRO3 was 100 to 1000 nM throughout.

Regarding `O[C@H]1CC[C@H](c2cnc(OC3CCNCC3)c3cnc(NCCC(F)(F)F)nc32)CC1` [Compound 224], the IC50 against FLT3 is not above 100 nM; on TYRO3 it was 100 to 1000 nM.

For the compound `CC[C@H](C)Nc1ncc2c(=O)n(C3CCOCC3)cc([C@H]3CC[C@H](O)CC3)c2n1` [Compound 225], the IC50 was 1000 to 10000 nM at FLT3 and not above 100 nM on TYRO3.

`CC[C@H](C)Nc1ncc2c(OC3CCOCC3)ncc([C@H]3CC[C@H](O)CC3)c2n1` [Compound 226]: the IC50 at FLT3 and on TYRO3 was 100 to 1000 nM in each case.
